According to patent US20090053751A1, “Chemiluminescent Method and Device for Evaluating the In Vivo Functional State of Phagocytes” (priority 2005, published 2009):

System: phagocytes
Experiment: Luminol-amplified chemiluminescence (CL) kinetics of zymosan-stimulated diluted whole blood
Format: cell-based, human
Experimental: Zymosan-A (Sigma Chemical Co.) was used as a phagocyte-stimulating agent. It was opsonized for 30 min at 37° C. in sample serum (20 mg/mL) and washed twice in 0.9% NaCl. The zymosan suspension in Krebs-Ringer phosphate medium (KRP) was prepared immediately prior to use. KRP was composed of 119 mmol/L NaCl, 4.75 mmol/L KCl, 0.420 mmol/L CaCl2, 1.19 mmol/L MgSO4.7H2O, 16.6 mmol/L sodium phosphate buffer, pH 7.4 and 5.56 mmol/L glucose (De Sole et al., 1983). Luminol (Sigma Chemical Co.) was used to amplify the chemiluminescence activity. A luminol stock solution (10 mmol/L in dimethyl sulfoxide) was stored in a dark place at room temperature and diluted 1:10 (v/v) with KRP just before use. In all experiments, the final concentration of luminol was 100 μmol/L. In some experiments formylmethionyl-leucyl-phenylalanine (fMLP—Sigma Chemical Co.) was used for priming (5 nM) of CL emitting cells. All reagents used were of analytical grade and the water was glass-distilled.
Diluted whole blood (1:100 v/v final dilution) was used to avoid artifacts due to the isolation of PMNs. Peripheral venous blood from human adults was collected in heparinized tubes (20 U/mL). Samples with a total volume of 200 μL contained diluted whole fresh blood, luminol and zymosan in KRP. […] After diluted blood was added, the sample content was mixed and CL measured. […]

SMILES	phagocytosis-related parts of the CL response (diluted whole blood preincubated at 37° C. for 5 minutes with 1.5 mmol/liter of aspirin, FIG. 6A)	relative contribution of extracellularly and intracellularly produced ROS (derived kinetic parameters) (diluted whole blood preincubated at 37° C. for 5 minutes with 3 nmol/liter fMLP, FIG. 2)
CC(=O)Oc1ccccc1C(=O)O [aspirin]	significant decrease	
CSCC[C@H](NC=O)C(=O)N[C@@H](CC(C)C)C(=O)N[C@@H](Cc1ccccc1)C(=O)O [fMLP, N-formylmethionyl leucyl phenylalanine]		more significant for the extracellular ROS production
